As usually defined, the MIC50 is an inhibitory concentration at the 50% level, which refers to growth in some studies and to a panel of isolates in others. Read a low MIC50 as greater potency.

Values after ≈ are worked out from the molar mass of the structure shown.

Series [1] is described as follows: Terminal half life in human. The format is ADME. Conditions: read-out: beta t1/2 (converted).
The next series deals with Staphylococcus aureus. The series is described as follows: Antibacterial activity against methicillin-resistant Staphylococcus aureus. The format is functional.
A further series concerns the target Albumin (Homo sapiens, UniProt P02768). In words: Protein binding to human serum albumin. Type of series: ADME, cell-free. To be noted: read-out: PB (converted).
Series [2] in a line: Terminal half life in human at 10 mg/kg, administered as single dose measured over 2 hrs. The format is ADME, organism-based. Conditions: in vivo, read-out: beta t1/2 (converted).

Sequence of Albumin (P02768 whole entry): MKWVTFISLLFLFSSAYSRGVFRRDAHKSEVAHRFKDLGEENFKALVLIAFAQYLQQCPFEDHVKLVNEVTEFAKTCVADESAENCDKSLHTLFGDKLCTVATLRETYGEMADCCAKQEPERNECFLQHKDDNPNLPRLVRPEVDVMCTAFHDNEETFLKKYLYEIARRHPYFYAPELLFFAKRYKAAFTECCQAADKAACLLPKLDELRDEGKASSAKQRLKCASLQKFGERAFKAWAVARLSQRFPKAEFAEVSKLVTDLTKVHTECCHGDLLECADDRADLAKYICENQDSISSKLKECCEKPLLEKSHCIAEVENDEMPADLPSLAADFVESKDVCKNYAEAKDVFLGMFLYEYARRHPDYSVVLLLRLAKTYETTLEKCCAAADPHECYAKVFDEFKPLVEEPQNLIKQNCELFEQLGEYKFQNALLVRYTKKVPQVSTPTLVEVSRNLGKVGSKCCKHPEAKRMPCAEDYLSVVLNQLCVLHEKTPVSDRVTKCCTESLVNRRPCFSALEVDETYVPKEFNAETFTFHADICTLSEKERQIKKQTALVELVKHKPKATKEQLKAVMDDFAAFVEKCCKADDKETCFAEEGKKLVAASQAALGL

Take `CN[C@H](CC(C)C)C(=O)N[C@H]1C(=O)N[C@@H](CC(N)=O)C(=O)N[C@H]2C(=O)N[C@H]3C(=O)N[C@H](C(=O)N[C@H](C(=O)O)c4cc(O)cc(O)c4-c4cc3ccc4O)[C@H](O)c3ccc(c(Cl)c3)Oc3cc2cc(c3O[C@@H]2O[C@H](CO)[C@@H](O)[C@H](O)[C@H]2O[C@H]2C[C@](C)(N)[C@H](O)[C@H](C)O2)Oc2ccc(cc2Cl)[C@H]1O` [VANCOMYCIN]: the half-life in series [1] is 6 h. Further, the MIC50 with Staphylococcus aureus stood at 1 µg/mL (≈ 0.69 µM). In addition, the fraction unbound on Albumin was 0.9.

For `CCCCCCCCCCNCCN[C@@]1(C)C[C@H](O[C@H]2[C@H](Oc3c4cc5cc3Oc3ccc(cc3Cl)[C@@H](O)[C@@H](NC(=O)[C@@H](CC(C)C)NC)C(=O)N[C@@H](CC(N)=O)C(=O)N[C@H]5C(=O)N[C@H]3C(=O)N[C@H](C(=O)N[C@H](C(=O)O)c5cc(O)c(CNCP(=O)(O)O)c(O)c5-c5cc3ccc5O)[C@H](O)c3ccc(c(Cl)c3)O4)O[C@H](CO)[C@@H](O)[C@@H]2O)O[C@@H](C)[C@H]1O` [TELAVANCIN], the half-life in series [2] was 7.5 h. The fraction unbound at Albumin is 0.07.

On to `CN[C@H](CC(C)C)C(=O)N[C@H]1C(=O)N[C@@H](CC(N)=O)C(=O)N[C@H]2C(=O)N[C@H]3C(=O)N[C@H](C(=O)N[C@H](C(=O)O)c4cc(O)cc(O)c4-c4cc3ccc4O)[C@H](O[C@H]3C[C@](C)(N)[C@@H](O)[C@H](C)O3)c3ccc(c(Cl)c3)Oc3cc2cc(c3O[C@@H]2O[C@H](CO)[C@@H](O)[C@H](O)[C@H]2O[C@H]2C[C@](C)(NCc3ccc(-c4ccc(Cl)cc4)cc3)[C@@H](O)[C@H](C)O2)Oc2ccc(cc2Cl)[C@H]1O` [ORITAVANCIN], for which, in series [1], the half-life is 195 h. Further, at Albumin, the fraction unbound is 0.1.

The record behind these values is ChEMBL document CHEMBL4732080, “Polypharmacological drug actions of recently FDA approved antibiotics” (Eur J Med Chem, 2021).
